Measurements: patent US6914045B2, “Glycopeptide antibiotics” (Wyeth Holdings Corporation, priority 2001, dated 2005)
Values after ≈ are worked out from the molar mass of the structure shown.

What was measured:
Experiment in all cases: in vitro antibacterial evaluation, MIC by broth dilution
Format in all cases: cell-based
Conditions in all cases: broth dilution, 18 hours at 35° C.
Streptococcus sp. = test system: Streptococcus sp.
Outline: (§1)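 MIC, the lowest antibiotic concentration preventing growth, was read across 64-0.06 μg/mL with 5×10^5 CFU/mL inoculum. Method followed NCCLS M7-A2 broth dilution using Mueller-Hinton II; Gram-positive strains covered recent methicillin-, penicillin- and/or vancomycin-resistant clinical isolates.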

Enterococcus sp. = test system: Enterococcus sp.
Outline: as §1

Staphylococcus sp. = test system: Staphylococcus sp.
Outline: as §1

Escherichia coli = test system: Escherichia coli
Outline: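 MIC is the lowest antibiotic concentration (tested 64-0.06 μg/mL) preventing growth of a 5×10^5 CFU/mL inoculum. Determined by broth dilution in Mueller-Hinton II medium following NCCLS standard M7-A2.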

- MIC Streptococcus pneumoniae (ATCC 6301) (Streptococcus sp.; strain ATCC 6301): 8 µg/mL (≈ 6.78 µM)
- MIC Streptococcus pneumoniae (GC 1894) (Streptococcus sp.; strain GC 1894): 8 µg/mL (≈ 6.78 µM)
- MIC Streptococcus pyogenes (GC 4563) (Streptococcus sp.; strain GC 4563): 2 µg/mL (≈ 1.69 µM)
- MIC Streptococcus agalactiae (GC 4564) (Streptococcus sp.; strain GC 4564): 4 µg/mL (≈ 3.39 µM)
- MIC Streptococcus pneumoniae (GC 4565) (Streptococcus sp.; strain GC 4565): 8 µg/mL (≈ 6.78 µM)
- MIC Enterococcus faecalis (ATCC 29212) (Enterococcus sp.; strain ATCC 29212): 16 µg/mL (≈ 13.6 µM)
- MIC Enterococcus faecalis (GC 2242) (Enterococcus sp.; strain GC 2242): 16 µg/mL (≈ 13.6 µM)
- MIC Enterococcus faecium (GC 2243) (Enterococcus sp.; strain GC 2243): 8 µg/mL (≈ 6.78 µM)
- MIC Enterococcus faecalis (GC 2691) (Enterococcus sp.; strain GC 2691): 16 µg/mL (≈ 13.6 µM)
- MIC Enterococcus faecalis (GC 3059) (Enterococcus sp.; strain GC 3059): 32 µg/mL (≈ 27.1 µM)
- MIC Enterococcus faecalis (GC 4552) (Enterococcus sp.; strain GC 4552): 2 µg/mL (≈ 1.69 µM)
- MIC Enterococcus faecalis (GC 4553) (Enterococcus sp.; strain GC 4553): 4 µg/mL (≈ 3.39 µM)
- MIC Enterococcus faecalis (GC 4554) (Enterococcus sp.; strain GC 4554): 16 µg/mL (≈ 13.6 µM)
- MIC Enterococcus faecium (GC 4556) (Enterococcus sp.; strain GC 4556): 8 µg/mL (≈ 6.78 µM)
- MIC Enterococcus faecium (GC 4557) (Enterococcus sp.; strain GC 4557): 2 µg/mL (≈ 1.69 µM)
- MIC Enterococcus avium (GC 4558) (Enterococcus sp.; strain GC 4558): 4 µg/mL (≈ 3.39 µM)
- MIC Enterococcus faecalis (GC 6189) (Enterococcus sp.; strain GC 6189): 16 µg/mL (≈ 13.6 µM)
- MIC Staphylococcus aureus (ATCC 29213) (Staphylococcus sp.; strain ATCC 29213): 8 µg/mL (≈ 6.78 µM)
- MIC Staphylococcus aureus (GC 1131) (Staphylococcus sp.; strain GC 1131): 4 µg/mL (≈ 3.39 µM)
- MIC Staphylococcus aureus (GC 3051) (Staphylococcus sp.; strain GC 3051): 4 µg/mL (≈ 3.39 µM)
- MIC Staphylococcus aureus (GC 3053) (Staphylococcus sp.; strain GC 3053): 4 µg/mL (≈ 3.39 µM)
- MIC Staphylococcus aureus (GC 4541) (Staphylococcus sp.; strain GC 4541): 4 µg/mL (≈ 3.39 µM)
- MIC Staphylococcus aureus (GC 4542) (Staphylococcus sp.; strain GC 4542): 4 µg/mL (≈ 3.39 µM)
- MIC Staphylococcus aureus-SMITH (GC 4543) (Staphylococcus sp.; strain GC 4543): 2 µg/mL (≈ 1.69 µM)
- MIC Staphylococcus aureus (GC 4544) (Staphylococcus sp.; strain GC 4544): 4 µg/mL (≈ 3.39 µM)
- MIC Staphylococcus aureus (GC 4545) (Staphylococcus sp.; strain GC 4545): 2 µg/mL (≈ 1.69 µM)
- MIC Coagulase Negative Staphylococcus (GC 4547) (Staphylococcus sp.; strain GC 4547): 4 µg/mL (≈ 3.39 µM)
- MIC Coagulase Negative Staphylococcus (GC 4548) (Staphylococcus sp.; strain GC 4548): 2 µg/mL (≈ 1.69 µM)
- MIC Coagulase Negative Staphylococcus (GC 4549) (Staphylococcus sp.; strain GC 4549): 1 µg/mL (≈ 0.847 µM)
- MIC Coagulase Negative Staphylococcus (GC 4551) (Staphylococcus sp.; strain GC 4551): 4 µg/mL (≈ 3.39 µM)
- MIC Escherichia coli (ATCC 25922) (Escherichia coli; strain ATCC 25922): 16 µg/mL (≈ 13.6 µM)
- MIC Escherichia coli (GC 4559) (Escherichia coli; strain GC 4559): 8 µg/mL (≈ 6.78 µM)
- MIC Escherichia coli (GC 4560) (Escherichia coli; strain GC 4560): 4 µg/mL (≈ 3.39 µM)
SMILES: CC(c1ccccc1)C1NC(=O)CNC(=O)C(CO)NC(=O)C(C(O)C2CNC(=N)N2C2OC(CO)C(O)C(O)C2O)NC(=O)C(C(O)C2CNC(=N)N2)NC(=O)C(Cc2ccc3oc(SCC(=O)c4ccc(Cl)cc4)nc3c2)NC1=O (stereo not shown) [Example 49]
- MIC Staphylococcus haemolyticus (GC 4546) (Staphylococcus sp.; strain GC 4546): 1 µg/mL (≈ 0.847 µM)
